Reference: US8318723B2, “Pyrazine compounds, their use and methods of preparation” (Boehringer Ingelheim International GmbH, priority 2006, dated 2012)

Target: PIM-2 (Homo sapiens, UniProt Q9P1W9)
Experiment: PIM-2 assay, IC50 determination (luciferase-luciferin ATP depletion, 10-point dose response)
Type: biochemical
Conditions: for IC50: 10 nM PIM-2, 1 μM ATP, 50 μM peptide substrate, 15 minutes at room temperature
Description: The screen utilizes the Zymark Allegro UHTS system to dispense reagents, buffers and test compounds. To Greiner 384-well, white Lumitrac-200 plates, 20 μL/well of 20 nM PIM-2 (10 nM final assay concentration) in assay buffer (25 mM HEPES, pH 7.5, 10 mM MgCl2, 50 mM KCl, 0.2% CHAPS, 100 μM Na3VO4, 0.2% BSA and 200 μM TCEP) is delivered, followed by 10 μL/well of test compounds (3 μg/mL final assay concentration in 1% DMSO) that were previously dissolved in DMSO and diluted in assay buffer. A 10 μL volume of a solution containing 4 μM ATP (1 μM final assay concentration) and 20 μM peptide substrate (Biotin-[sequence], 5 μM final assay concentration) diluted in assay buffer is added to each well and the contents of the wells are mixed. […] Positive control wells receive 10 μL/well of assay buffer in lieu of compound. The kinase reaction mixture is incubated for 60 minutes at room temperature. A 40 μL/well of ATP detection reagent is then added to the reaction mixture. The assay plates are read on an Analyst (Molecular Devices) in luminescence mode following additional 15 minutes of incubation at room temperature. Luminescence signals are converted to percent of control (POC) values using the formula: POC=(BCTRL−Signal)÷(BCTRL−PCTRL), where Signal is the test well signal, BCTRL is the average of background control well signals on the plate and PCTRL is the average of positive control well signals on the plate.
The IC50 of the compounds is determined with a modification of the above method. The assay is performed in 96-well Lumitrac-200, white, plates. Test compounds dissolved in DMSO (5 mg/mL) are serially diluted 1 to 3 in DMSO for 10-point dose response. The DMSO dilutions are further diluted in the assay buffer and 15 μL of this dilution is added to the assay plate, for a final starting assay concentration of 5 μg/mL in 1% DMSO. A 15 μL volume of 40 nM PIM-2 followed by 30 μL of a solution containing 2 μM ATP and 100 μM peptide substrate, all diluted in assay buffer, is added to each well for a final assay concentration of 10 nM PIM-2, 1 μM ATP, and 50 μM peptide substrate. The kinase reaction mixture is incubated for 15 minutes at room temperature. A 60 μL/well of ATP detection reagent is then added to the reaction mixture. The assay plates are read on an Analyst (Molecular Devices) in luminescence mode following additional 15 minutes of incubation at room temperature. IC50 is determined by fitting the POC of the dose response data to a 4-parameter logistic equation.

PIM-2, sequence (Q9P1W9 whole entry): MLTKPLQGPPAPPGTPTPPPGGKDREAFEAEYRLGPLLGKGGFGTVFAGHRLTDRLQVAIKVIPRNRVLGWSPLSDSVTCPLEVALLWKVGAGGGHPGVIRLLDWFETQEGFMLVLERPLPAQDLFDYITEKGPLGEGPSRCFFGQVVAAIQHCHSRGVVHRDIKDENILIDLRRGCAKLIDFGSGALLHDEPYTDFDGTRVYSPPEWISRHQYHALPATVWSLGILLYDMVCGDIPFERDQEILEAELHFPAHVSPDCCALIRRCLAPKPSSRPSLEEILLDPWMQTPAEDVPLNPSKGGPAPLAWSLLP

Compound | IC50 | POC @ 5 μg/mL (percent of control at 5 μg/mL (final starting assay concentration of dose response))
O=C(O)/C=C/c1cccc(-c2cncc(N[C@H]3CC[C@H](O)CC3)n2)c1 [compound 3, (E)-3-{3-[6-(4-Hydroxy-cyclohexylamino)-pyrazin-2-yl]-phenyl}-acrylic acid] | 265 nM | –
O=C(O)/C=C/c1cccc(-c2cncc(NCC3CCNCC3)n2)c1 [compound 4, (E)-3-(3-{6-[(Piperidin-4-ylmethyl)-amino]-pyrazin-2-yl}-phenyl)-acrylic acid] | 57 nM | –
NCCCCNc1cncc(-c2cccc(/C=C/C(=O)O)c2)n1 [compound 5, (E)-3-{3-[6-(4-Amino-butylamino)-pyrazin-2-yl]-phenyl}-acrylic acid] | 22 nM | –
NCCCNc1cncc(-c2cccc(/C=C/C(=O)O)c2)n1 [compound 6, (E)-3-{3-[6-(3-Amino-propylamino)-pyrazin-2-yl]-phenyl}-acrylic acid] | 27 nM | –
CC(C)(CN)CNc1cncc(-c2cccc(/C=C/C(=O)O)c2)n1 [compound 7, (E)-3-{3-[6-(3-Amino-2,2-dimethyl-propylamino)-pyrazin-2-yl]-phenyl}-acrylic acid] | 27 nM | –
CN(C)CCCNc1cncc(-c2cccc(/C=C/C(=O)O)c2)n1 [compound 8, (E)-3-{3-[6-(3-Dimethylamino-propylamino)-pyrazin-2-yl]-phenyl}-acrylic acid] | 94 nM | –
CN(C)CCNc1cncc(-c2cccc(/C=C/C(=O)O)c2)n1 [compound 9, (E)-3-{3-[6-(2-Dimethylamino-ethylamino)-pyrazin-2-yl]-phenyl}-acrylic acid] | 99 nM | –
CNCCCN(C)c1cncc(-c2cccc(/C=C/C(=O)O)c2)n1 [compound 10, (E)-3-(3-{6-[Methyl-(3-methylamino-propyl)-amino]-pyrazin-2-yl}-phenyl)-acrylic acid] | 110 nM | –
CCNCCCNc1cncc(-c2cccc(/C=C/C(=O)O)c2)n1 [compound 11, (E)-3-{3-[6-(3-Ethylamino-propylamino)-pyrazin-2-yl]-phenyl}-acrylic acid] | 120 nM | –
NCCNc1cncc(-c2cccc(/C=C/C(=O)O)c2)n1 [compound 12, (E)-3-{3-[6-(2-Amino-ethylamino)-pyrazin-2-yl]-phenyl}-acrylic acid] | 140 nM | –
CNCCN(C)c1cncc(-c2cccc(/C=C/C(=O)O)c2)n1 [compound 13, (E)-3-(3-{6-[Methyl-(2-methylamino-ethyl)-amino]-pyrazin-2-yl}-phenyl)-acrylic acid] | 240 nM | –
CN(C)CCCN(C)c1cncc(-c2cccc(/C=C/C(=O)O)c2)n1 [compound 14, (E)-3-(3-{6-[(3-Dimethylamino-propyl)-methyl-amino]-pyrazin-2-yl}-phenyl)-acrylic acid] | 370 nM | –
NC(=O)CNc1cncc(-c2cccc(/C=C/C(=O)O)c2)n1 [compound 15, (E)-3-{3-[6-(Carbamoylmethyl-amino)-pyrazin-2-yl]-phenyl}-acrylic acid] | 84 nM | –
NC(=O)CCNc1cncc(-c2cccc(/C=C/C(=O)O)c2)n1 [compound 16, (E)-3-{3-[6-(2-Carbamoyl-ethylamino)-pyrazin-2-yl]-phenyl}-acrylic acid] | 250 nM | –
O=C(O)/C=C/c1cccc(-c2cncc(NCCO)n2)c1 [compound 17, (E)-3-{3-[6-(2-Hydroxy-ethylamino)-pyrazin-2-yl]-phenyl}-acrylic acid] | 300 nM | –
O=C(O)/C=C/c1cccc(-c2cncc(NCCCO)n2)c1 [compound 18, (E)-3-{3-[6-(3-Hydroxy-propylamino)-pyrazin-2-yl]-phenyl}-acrylic acid] | 310 nM | –
COCCCNc1cncc(-c2cccc(/C=C/C(=O)O)c2)n1 [compound 19, (E)-3-{3-[6-(3-Methoxy-propylamino)-pyrazin-2-yl]-phenyl}-acrylic acid] | 480 nM | –
COCCNc1cncc(-c2cccc(/C=C/C(=O)O)c2)n1 [compound 20, (E)-3-{3-[6-(2-Methoxy-ethylamino)-pyrazin-2-yl]-phenyl}-acrylic acid] | 1200 nM | –
CC(=O)NCCNc1cncc(-c2cccc(/C=C/C(=O)O)c2)n1 [compound 21, (E)-3-{3-[6-(2-Acetylamino-ethylamino)-pyrazin-2-yl]-phenyl}-acrylic acid] | 1020 nM | –
NCC1CCN(c2cncc(-c3cccc(/C=C/C(=O)O)c3)n2)CC1 [compound 22, (E)-3-{3-[6-(4-Aminomethyl-piperidin-1-yl)-pyrazin-2-yl]-phenyl}-acrylic acid] | 21 nM | –
CN(C)C1CCN(c2cncc(-c3cccc(/C=C/C(=O)O)c3)n2)CC1 [compound 24, (E)-3-{3-[6-(4-Dimethylamino-piperidin-1-yl)-pyrazin-2-yl]-phenyl}-acrylic acid] | 72 nM | –

Compound | IC50 | POC @ 5 μg/mL (percent of control at 5 μg/mL (final starting assay concentration of dose response))
NC1CCN(c2cncc(-c3cccc(/C=C/C(=O)O)c3)n2)CC1 [compound 25, (E)-3-{3-[6-(4-Amino-piperidin-1-yl)-pyrazin-2-yl]-phenyl}-acrylic acid] | 115 nM | –
CN1CCN(c2cncc(-c3cccc(/C=C/C(=O)O)c3)n2)CC1 [compound 26, (E)-3-[3-(4-Methyl-3,4,5,6-tetrahydro-2H-[1,2′]bipyrazinyl-6′-yl)-phenyl]-acrylic acid] | 150 nM | –
O=C(O)/C=C/c1cccc(-c2cncc(N3CCCNCC3)n2)c1 [compound 27, (E)-3-[3-(6-[1,4]Diazepan-1-yl-pyrazin-2-yl)-phenyl]-acrylic acid] | 185 nM | –
O=C(O)/C=C/c1cccc(-c2cncc(N3CCNCC3)n2)c1 [compound 28, (E)-3-[3-(3,4,5,6-Tetrahydro-2H-[1,2′]bipyrazinyl-6′-yl)-phenyl]-acrylic acid] | 200 nM | –
O=C(O)/C=C/c1cccc(-c2cncc(N3CCCN(Cc4ccccc4)CC3)n2)c1 [compound 29, (E)-3-{3-[6-(4-Benzyl-[1,4]diazepan-1-yl)-pyrazin-2-yl]-phenyl}-acrylic acid] | 230 nM | –
CN(C)C1CCN(c2cncc(-c3cccc(/C=C/C(=O)O)c3)n2)C1 (centres unmarked) [compound 30, (E)-3-{3-[6-(3-Dimethylamino-pyrrolidin-1-yl)-pyrazin-2-yl]-phenyl}-acrylic acid] | 270 nM | –
CC(=O)N1CCCN(c2cncc(-c3cccc(/C=C/C(=O)O)c3)n2)CC1 [compound 31, (E)-3-{3-[6-(4-Acetyl-[1,4]diazepan-1-yl)-pyrazin-2-yl]-phenyl}-acrylic acid] | 880 nM | –
O=C(O)/C=C/c1cccc(-c2cncc(N3CCC(O)CC3)n2)c1 [compound 32, (E)-3-{3-[6-(4-Hydroxy-piperidin-1-yl)-pyrazin-2-yl]-phenyl}-acrylic acid] | 1050 nM | –
O=C(O)/C=C/c1cccc(-c2cncc(N3CCC(CO)CC3)n2)c1 [compound 33, (E)-3-{3-[6-(4-Hydroxymethyl-piperidin-1-yl)-pyrazin-2-yl]-phenyl}-acrylic acid] | 2100 nM | –
O=C(O)/C=C/c1cccc(-c2cncc(N3CCOCC3)n2)c1 [compound 34, (E)-3-[3-(6-Morpholin-4-yl-pyrazin-2-yl)-phenyl]-acrylic acid] | 1700 nM | –
O=C(O)/C=C/c1cccc(-c2cncc(N3CCCCCC3)n2)c1 [compound 35, (E)-3-[3-(6-Azepan-1-yl-pyrazin-2-yl)-phenyl]-acrylic acid] | 3300 nM | –
CN1CCCN(c2cccc(-c3cccc(/C=C/C(=O)O)c3)n2)CC1 [compound 36, (E)-3-{3-[6-(4-Methyl-[1,4]diazepan-1-yl)-pyridin-2-yl]-phenyl}-acrylic acid] | 46 nM | –
CN1CCCN(c2cncc(-c3cncc(/C=C/C(=O)O)c3)n2)CC1 [compound 37, (E)-3-{5-[6-(4-Methyl-[1,4]diazepan-1-yl)-pyrazin-2-yl]-pyridin-3-yl}-acrylic acid] | 385 nM | –
CN1CCCN(c2cncc(-c3cccc(CCC(=O)O)c3)n2)CC1 [compound 38, 3-[3-[6-(4-Methyl-[1,4]diazepan-1-yl)-pyrazin-2-yl]-phenyl]-propionic acid] | 1400 nM | –
COC(=O)/C=C/c1cccc(-c2cncc(N3CCCN(C)CC3)n2)c1 [compound 39, (E)-3-{3-[6-(4-Methyl-[1,4]diazepan-1-yl)-pyrazin-2-yl]-phenyl}-acrylic acid methyl ester] | 1400 nM | –
CN1CCCN(c2cncc(-c3cccc(/C=C/C(N)=O)c3)n2)CC1 [compound 40, (E)-3-{3-[6-(4-Methyl-[1,4]diazepan-1-yl)-pyrazin-2-yl]-phenyl}-acrylamide] | 1200 nM | –
CN1CCCN(c2cncc(-c3cccc(/C=C/CO)c3)n2)CC1 [compound 41, (E)-3-{3-[6-(4-Methyl-[1,4]diazepan-1-yl)-pyrazin-2-yl]-phenyl}-prop-2-en-1-ol] | – | 69POC @ 5 μg/mL
CN1CCCN(c2cncc(-c3cccc(/C=C/C#N)c3)n2)CC1 [compound 42, (E)-3-{3-[6-(4-Methyl-[1,4]diazepan-1-yl)-pyrazin-2-yl]-phenyl}-acrylonitrile] | 13000 nM | –
CN1CCCN(c2cncc(-c3cccc(/C=C/c4nnn[nH]4)c3)n2)CC1 [compound 43, 1-Methyl-4-(6-{3-[(E)-2-(1H-tetrazol-5-yl)-vinyl]-phenyl}-pyrazin-2-yl)-[1,4]diazepane] | 89 nM | –
CN1CCCN(c2cncc(-c3cccc(/C=C/C(=O)NS(C)(=O)=O)c3)n2)CC1 [compound 44, N-((E)-3-{3-[6-(4-Methyl-perhydro-1,4-diazepin-1-yl)-pyrazin-2-yl]-phenyl}-acryloyl)-methanesulfonamide] | 2400 nM | –
